What was measured:
P2X7R = test system: P2X7R; design: method as in PMID 24314880; conditions: read-out: EC50 for P2X7R activation; cited from earlier work
mP2X7R = biological target: T1, mP2X7R (Mus musculus, UniProt Q9Z1M0); test: ATP-induced IL-1β release ELISA in mouse peritoneal macrophages; assay type: cell-based; conditions: LPS priming, ATP 30 min
T1 construct: P2X7 receptor expressed in peritoneal macrophages; endogenous in cells; host or cells: mouse peritoneal macrophages (primary)
T1 sequence (Q9Z1M0 1-595): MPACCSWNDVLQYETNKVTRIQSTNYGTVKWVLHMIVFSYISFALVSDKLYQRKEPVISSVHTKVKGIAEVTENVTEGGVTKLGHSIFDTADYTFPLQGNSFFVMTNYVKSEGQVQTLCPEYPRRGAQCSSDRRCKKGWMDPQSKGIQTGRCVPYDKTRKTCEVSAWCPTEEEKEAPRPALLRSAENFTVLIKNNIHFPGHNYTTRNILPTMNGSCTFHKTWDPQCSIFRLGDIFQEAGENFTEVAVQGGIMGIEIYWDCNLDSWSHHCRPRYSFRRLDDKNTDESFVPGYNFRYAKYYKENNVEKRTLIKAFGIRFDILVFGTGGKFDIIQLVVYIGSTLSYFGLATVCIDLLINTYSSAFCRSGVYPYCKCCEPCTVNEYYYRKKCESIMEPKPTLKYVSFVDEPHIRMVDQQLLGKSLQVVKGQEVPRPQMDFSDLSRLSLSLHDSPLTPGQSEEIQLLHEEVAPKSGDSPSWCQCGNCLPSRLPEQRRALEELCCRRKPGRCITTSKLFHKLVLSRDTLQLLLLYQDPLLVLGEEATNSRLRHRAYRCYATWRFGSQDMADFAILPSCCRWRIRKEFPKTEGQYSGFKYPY
Protocol: (§1) The monocytic THP-1 cell line used in this experiment was donated by the Laboratory of Applied Pharmacology, Institute of Drug Technology (Farmanguinhos), Rio de Janeiro, Brazil. Cells were plated at 2 × 10^5 cells/well in 96-well culture plates maintained in RPMI containing 10% fetal bovine serum (FBS), penicillin (100 U/mL), and streptomycin ([…]) in a humidified 5% CO2 atmosphere at 37 °C. Then, the cells were primed with Escherichia coli lipopolysaccharide (LPS, serotype 0127: B8) four hours before ATP stimulation for 30 min. Mouse peritoneal macrophages were primed with 10 ng/mL interferon-γ (IFN-γ) for 24 h and posteriorly stimulated with Escherichia coli lipopolysaccharide (LPS, serotype 0127: B8). The P2X7R antagonist A740003 and naphthoquinone derivatives were preincubated for 30 min before ATP addition. IL-1β was determined according to a standard kit (Bioscience, San Diego, CA, USA and Abcam, Cambridge Biomedical Campus, Cambridge, UK).

hP2X7R = biological target: T2, hP2X7R (Homo sapiens, UniProt Q99572); test: ATP-induced IL-1β release ELISA in THP-1 cells; assay type: cell-based; conditions: human THP-1 cells, LPS 4 h, ATP 30 min
T2 construct: The monocytic THP-1 cell line used in this experiment was donated; endogenous in cells; host or cells: THP-1 human monocytic cell line
T2 sequence (Q99572 1-595): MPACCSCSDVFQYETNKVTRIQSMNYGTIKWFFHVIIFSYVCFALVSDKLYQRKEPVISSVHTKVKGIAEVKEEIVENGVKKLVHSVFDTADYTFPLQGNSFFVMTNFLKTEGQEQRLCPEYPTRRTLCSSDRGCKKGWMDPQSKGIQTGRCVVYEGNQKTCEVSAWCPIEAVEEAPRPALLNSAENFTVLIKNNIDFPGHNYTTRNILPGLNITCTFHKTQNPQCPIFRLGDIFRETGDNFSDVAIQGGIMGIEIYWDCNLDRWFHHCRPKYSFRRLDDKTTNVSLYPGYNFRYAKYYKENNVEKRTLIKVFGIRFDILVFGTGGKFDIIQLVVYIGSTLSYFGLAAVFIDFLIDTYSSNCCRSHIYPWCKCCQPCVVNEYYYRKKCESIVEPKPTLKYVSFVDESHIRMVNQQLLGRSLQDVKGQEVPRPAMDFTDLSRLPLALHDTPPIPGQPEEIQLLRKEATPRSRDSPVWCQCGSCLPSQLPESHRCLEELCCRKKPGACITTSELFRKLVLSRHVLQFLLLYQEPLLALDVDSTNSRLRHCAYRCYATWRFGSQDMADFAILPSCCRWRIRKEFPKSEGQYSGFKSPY
Protocol: as §1

P2X7 receptor = biological target: T3, P2X7 receptor (Mus musculus, UniProt Q9Z1M0); test: ATP-induced propidium iodide dye uptake assay (P2X7R-associated pore formation); assay type: cell-based; conditions: pretreatment 10 min, 5 mM ATP 15 min, peritoneal macrophages; for Inhibition of ATP-induced PI uptake / inhibition at 10 µM: 10 µM; for inhibition at 10 µM: P2X7, read-out: Inhibition of ATP-induced PI uptake; for IC50: read-out: IC50 ATP-induced PI uptake
T3 construct: P2X7 receptor expressed in peritoneal macrophages; endogenous in cells; host or cells: mouse peritoneal macrophages (primary)
T3 sequence (Q9Z1M0 1-595): T1 sequence (Q9Z1M0 1-595)
Protocol: (§2) The animals used in these experiments were furnished by the animal breeding unit at Pavilion Hélio and Peggy Pereira at FIOCRUZ/IOC. The Institutional Animal Ethics Committee approved all experimental protocols under number L039-2016. Peritoneal macrophages were isolated from euthanized mice (weighing between 20 and 30 g) by injection of 10 mL phosphate-buffered saline (PBS) into the peritoneum of each animal. Then, the solution was completely removed from the peritoneal cavity using a syringe and transferred to 50 mL sterile tubes. Tubes were centrifuged at 1500 rpm for 5 min. The supernatant was discarded, and the pellet was resuspended in RPMI medium supplemented with 10% SFB and 1% antibiotic. The cells were counted and seeded in plates. After 40 min, the supernatant from each well was discarded to remove cells other than macrophages, and then RPMI medium was added. The macrophages were maintained in RPMI medium supplemented with 10% SFB and 1% antibiotic in a humid atmosphere at 37 °C containing 5% CO2 during the experiments.
To evaluate P2X7R-associated pore formation, a propidium iodide (PI) uptake assay was used. Peritoneal macrophages (3.0 × 10^5/well) were incubated with naphthoquinone derivatives and the inhibitor BBG (Brilliant Blue G, Sigma-Aldrich) at 10 µM and 750 nM, respectively, for 10 min. Subsequently, cells were exposed to 5 mM ATP for 15 min, and in the last 5 min, they were incubated with 1 µM PI dye. At the end of the incubation period, fluorescence was measured using a SpectraMax M5 spectrophotometer at 493/636 nm (excitation/emission). Compounds with inhibition values higher than 50% were selected to evaluate their inhibitory activity at varying concentrations. The inhibition curve was obtained using compounds at concentrations of 0.01 µM, 1 µM, 10 µM, 50 µM, and 100 µM. The controls and the procedure were the same.

mouse peritoneal cells = test: LDH release cytotoxicity assay; assay type: cell-based; conditions: 24 h, increasing concentrations
Protocol: as §2
Peritoneal macrophages (3.0 × 10^5 cells/well) were grown in 96-well plates and kept in an oven at 37 °C under a 5% CO2 atmosphere. […] The assay was finished by the addition of the LDH kit’s reagent (Kit CytoTox 96® Non-Radioactive Cytotoxicity Assay, Promega, Madison, WI, USA), prepared according to the manufacturer’s instructions. After 30 min of reaction, a stop solution was added, and the absorbance was measured at 490 nm.

ATP-induced paw edema = ATP-induced paw edema assay; assay type: in vivo, Swiss Webster mice; conditions: mice, intraperitoneal pretreatment, intra-plantar ATP, edema measured 30 min after ATP
Protocol: Paw edema in mice was induced by intra-plantar administration of ATP (10 mg/paw) for 30 min. Animals were pretreated intraperitoneally with the standard P2X7R antagonist A740003 (1 mg/kg) and the selected compounds PS01, PS02, PS03, PS09, and PS10 (1 mg/kg) for 60 min before ATP administration. Edema formation was determined with a mouse plethysmometer (UGO Basile, Gemonio, Italy) before ATP injection compared with saline injection in the contralateral paw edema.

| IC50 (mP2X7R) | IC50 (hP2X7R) | Inhibition of ATP-induced PI uptake (P2X7 receptor) | Structure (SMILES) | further results |
| --- | --- | --- | --- | --- |
| – | – | – | Nc1ncnc2c1ncn2[C@@H]1O[C@H](COP(=O)(O)OP(=O)(O)OP(=O)(O)O)[C@@H](O)[C@H]1O [ATP, Adenosine triphosphate] | EC50 (P2X7R): > 100000 nM |
| 24 ± 3 µM | 16 ± 2 µM | – | CCOc1ccc(Nc2ccc(/C(=C3C=C/C(=[N+](/CC)Cc4cccc(S(=O)(=O)[O-])c4)C=C/3C)c3ccc(N(CC)Cc4cccc(S(=O)(=O)O)c4)cc3C)cc2)cc1 [BBG, Brilliant Blue G, reference compound] | – |
| 0.9 ± 0.1 µM | 0.85 ± 0.1 µM | inhibited the ATP effect | COc1ccc(CC(=O)NC(N=C(NC#N)Nc2cccc3ncccc23)C(C)(C)C)cc1OC (stereo not shown) [Compound A740003, reference compound] | – |
| 5 ± 1 µM | 4 ± 2 µM | – | O=C1C=C(Nc2ccc(NS(=O)(=O)c3ccccc3)cc2)C(=O)c2ccccc21 [PS01] | IC50 values (CC50), LDH activity (mouse peritoneal cells): 201000 ± 11000 nM; inhibition at 10 µM (P2X7 receptor): > 50%; IC50 (P2X7 receptor): 1000 ± 100 nM; ID50 ATP−induced edema formation (ATP-induced paw edema): 0.128 ± 0.016 µg/kg |
| 3 ± 0.2 µM | 3 ± 0.3 µM | – | O=C1C=C(Nc2ccc(NS(=O)(=O)c3ccc(F)cc3)cc2)C(=O)c2ccccc21 [PS02] | IC50 values (CC50), LDH activity (mouse peritoneal cells): 298000 ± 16000 nM; inhibition at 10 µM (P2X7 receptor): > 50%; IC50 (P2X7 receptor): 300 ± 3 nM; ID50 ATP−induced edema formation (ATP-induced paw edema): 0.093 ± 0.008 µg/kg |
| 1.5 ± 0.4 µM | 1 ± 0.4 µM | – | Cc1ccc(S(=O)(=O)Nc2ccc(NC3=CC(=O)c4ccccc4C3=O)cc2)cc1 [PS03] | IC50 values (CC50), LDH activity (mouse peritoneal cells): 322000 ± 20000 nM; inhibition at 10 µM (P2X7 receptor): > 50%; IC50 (P2X7 receptor): 70 ± 3 nM; ID50 ATP−induced edema formation (ATP-induced paw edema): 0.067 ± 0.005 µg/kg |
| – | – | did not show inhibitory effects | O=C1C=C(Nc2ccc(NS(=O)(=O)c3ccc4ccccc4c3)cc2)C(=O)c2ccccc21 [PS04] | – |
| – | – | did not show inhibitory effects | O=C1C=C(Nc2ccc(NS(=O)(=O)c3ccc([N+](=O)[O-])cc3)cc2)C(=O)c2ccccc21 [PS05] | – |
| – | – | did not show inhibitory effects | O=C1C(Cl)=C(Nc2ccc(NS(=O)(=O)c3ccccc3)cc2)C(=O)c2ccccc21 [PS06] | – |
| – | – | did not show inhibitory effects | Cc1ccc(S(=O)(=O)Nc2ccc(NC3=C(Cl)C(=O)c4ccccc4C3=O)cc2)cc1 [PS07] | – |
| – | – | did not show inhibitory effects | O=C1C(Cl)=C(Nc2ccc(NS(=O)(=O)c3ccc(F)cc3)cc2)C(=O)c2ccccc21 [PS08] | – |
| 0.09 ± 0.01 µM | 0.02 ± 0.002 µM | – | O=C1C(Cl)=C(Nc2ccc(NS(=O)(=O)c3ccc4ccccc4c3)cc2)C(=O)c2ccccc21 [PS09] | IC50 values (CC50), LDH activity (mouse peritoneal cells): 401000 ± 18000 nM; inhibition at 10 µM (P2X7 receptor): > 50%; IC50 (P2X7 receptor): 8 ± 0.1 nM; ID50 ATP−induced edema formation (ATP-induced paw edema): 0.0098 ± 0.0007 µg/kg |
| 0.7 ± 0.1 µM | 0.3 ± 0.06 µM | – | O=C1C(Cl)=C(Nc2ccc(NS(=O)(=O)c3ccc([N+](=O)[O-])cc3)cc2)C(=O)c2ccccc21 [PS10] | IC50 values (CC50), LDH activity (mouse peritoneal cells): 351000 ± 21000 nM; inhibition at 10 µM (P2X7 receptor): > 50%; IC50 (P2X7 receptor): 10 ± 2 nM; ID50 ATP−induced edema formation (ATP-induced paw edema): 0.0136 ± 0.016 µg/kg |
| – | – | did not show inhibitory effects | NC1=CC(=O)c2cccc(OS(=O)(=O)c3ccccc3)c2C1=O [PS11] | – |
| – | – | did not show inhibitory effects | Cc1ccc(S(=O)(=O)Oc2cccc3c2C(=O)C(N)=CC3=O)cc1 [PS12] | – |
| – | – | did not show inhibitory effects | NC1=CC(=O)c2cccc(OS(=O)(=O)c3ccc(F)cc3)c2C1=O [PS13] | – |
| – | – | did not show inhibitory effects | NC1=CC(=O)c2cccc(OS(=O)(=O)c3ccc4ccccc4c3)c2C1=O [PS14] | – |
| – | – | did not show inhibitory effects | NC1=CC(=O)c2cccc(OS(=O)(=O)c3ccc([N+](=O)[O-])cc3)c2C1=O [PS15] | – |

Source: PMC9866630, “Synthesis, Biological Evaluation and Molecular Modeling Studies of Naphthoquinone Sulfonamides and Sulfonate Ester Derivatives as P2X7 Inhibitors” (Molecules, 2023)
